Source: article PMC9923724, “Half sandwich-type osmium, ruthenium, iridium and rhodium complexes with bidentate glycosyl heterocyclic ligands induce cytostasis in platinum-resistant ovarian cancer cells and bacteriostasis in Gram-positive multiresistant bacteria” (Frontiers in Chemistry, 2023)

Assays:
[1] = tested on: A2780 ovarian cancer cells; test: SRB assay (cytostasis, 48 h) on A2780 cells; format: cell-based; settings: 48 h treatment
Procedure: First, we assessed a set of osmium complexes (similar to Ia [[Kacsir et al., 2022]) in Figure 1] and their sugar-derived ligands, in which the benzoyl protective groups on the carbohydrate moiety were replaced by aliphatic acyl groups of different chain length (straight chain C3-C7–CO). Osmium was selected as a central ion, since osmium complexes had the best biological activity in our previous studies ([Balázs et al., 2022]; [Kacsir et al., 2022]). These compounds were tested on A2780 ovarian cancer cells for toxicity and cytostasis. The therapy of ovarian cancer is centered around platinum compounds ([Brown et al., 2019]; [Sipos et al., 2021]), therefore, it was logical to use a cellular model of ovarian cancer for the initial testing of the compounds. Toxicity was assessed using the MTT assay that measures the activity of mitochondrial complex I. We chose 4 h long treatment as in an MTT assay this time point is suitable to detect rapid, direct toxicity. Cytostasis was assessed after 48 h of treatment using the SRB assay that assesses protein content that corresponds to cell count. The characteristics of the compounds are detailed in Table 2.
3 × 10^3 A2780 cells, were plated to 96 well plates. Cells were treated with the compounds in the concentrations indicated for either 4 h for an MTT assay or for 48 h for an SRB assay. Data is represented as average ± SD, from three biological replicates; individual assays were performed in duplicates. Values were normalized for vehicle treated cells, absorbance for vehicle treated cells equals to 1. […] Except for the Os-6 complex, Two-way ANOVA test was performed and all values were compared with each other (Tukey’s post hoc test). […] Non-linear regression was performed on the data.
3 × 10^3 A2780 cells, 2 × 10^3 ID8 cells and 4 × 10^3 primary fibroblasts were plated to 96 well plates. Cells were treated with the compounds in the concentrations indicated for either 4 h for an MTT assay or for 48 h for an SRB assay. Data is represented as average ± SD, from three biological replicates; individual assays were performed in duplicates. Values were normalized for vehicle treated cells, absorbance for vehicle treated cells equals to 1. Statistical significance was assessed using two-way ANOVA test comparing the free ligand and each complex as a complex-ligand pair. Before the test normality was assessed using the D’Agostino-Pearson test. The ID8 SRB Ir-7+L-7 dataset had lognormal distribution. […] All other datasets had normal distribution. For better visibility the p values are presented in an excel sheet at https://figshare.com/s/2c942a812caea8869a67. Non-linear regression was performed on the A2780 SRB and the ID8 SRB datasets.
The assay was performed similar to ([Kovács et al., 2019]). Cells were seeded in 96 well plates the day before the assay. Cells were treated with the compounds for 48 h. Cells were fixed with 10% trichloroacetic acid (TCA). Fixed cells were washed in distilled water 3 times followed by staining with SRB (0.4 m/V% dissolved in 1% acetic acid) for 10 min. Stained cells were washed in 1% acetic acid 5 times; acetic acid was removed and cells were left to dry. Protein-bound SRB was released by adding 100 µl 10 mM Tris base. Plates were measured in a plate photometer (Thermo Scientific Multiscan GO spectrophotometer, Waltham, MA, United States) at 540 nm. On each plate wells were designed to contain vehicle-treated cells. In calculations the readings for these wells was considered as 1 and all readings were expressed relative to these values.
Statistical analysis was performed using 8.0.1 version of Graphpad Prism. Values were tested for normal distribution using the D’Agostino and Pearson normality test. When necessary, values were log normalized or were normalized using the Box-Cox normalization method ([Box and Cox, 1964]) as indicated in the figure captions. […]

[2] = tested on: methicillin-resistant Staphylococcus aureus (MRSA) clinical isolates; test: Broth microdilution MIC, clinical MRSA isolates; format: cell-based; settings: for MIC against clinical MRSA isolates (as a group): 6 clinical MRSA isolates; for MIC, MRSA 20 426: clinical isolate 20 426, blood, 2020; for MIC, MRSA 24 035: clinical isolate 24 035, wound; for MIC, MRSA 24 035 / MIC, MRSA 24 268 / MIC, MRSA 24 272 / MIC, MRSA 24 328 / MIC, MRSA 24 408: 2018; for MIC, MRSA 24 268: clinical isolate 24 268, throat; for MIC, MRSA 24 272: clinical isolate 24 272, throat; for MIC, MRSA 24 328: clinical isolate 24 328, throat; for MIC, MRSA 24 408: clinical isolate 24 408, bronchial
Procedure: The MIC values of the complexes were determined against the reference strains of S. aureus (ATCC29213) and E. faecalis. (ATCC29212) and against clinical VRE and MRSA isolates by microdilution assays (repeated at least twice in duplicates) as described in Materials and Methods. The numbers indicate how many isolates were susceptible to the compound out of those tested; i.e., 1/6 stands for 1 isolate was susceptible out of 6 tested. […] Cells were harvested and lysed. Cellular proteins was separated on a 10% SDS-PAGE gel and were blotted. Blots were probed with 4HNE antibody (top blot), the lower blot was stained with amido black. Arrows point at band of interest. Experiments were repeated three times and a representative blot is shown. On the blots brightness and contrast were adjusted. […] Each was matched to a substance and strain by its position over the x-axis categories. / Ir-7: ND and 0/3 (left plot) and ND and 0/6 (right plot) were matched to E. faecalis/VRE and S. aureus/MRSA by position only.
We used a set of clinical isloates of S. aureus and E. faecium that were collected at the Medical Center of the University of Debrecen (Hungary) between 01. 01. 2018.—31. 12. 2020. The clinical isolates were identified using a Microflex MALDI-TOF mass spectrometer (Bruker, Billerica, MA, United States). Antibiotic susceptibility of the isolates was tested following the European Committee on Antimicrobial Susceptibility Testing ([EUCAST, 2021]) guidelines valid at the time of collection.
Microdilution experiments were performed according to the standards of EUCAST ([EUCAST, 2021]). […] The inoculated plates were incubated for 24 h at 37°C then were assessed visually. […] All experiments were performed at least twice in duplicates.

Row | Compound | A2780 SRB IC50 [1] | A2780 SRB Max. (maximal inhibition) [1] [%] | IC50 [1] [nM] | MIC against clinical MRSA isolates (as a group) [2] | MIC, MRSA 20 426 [2] | MIC, MRSA 24 035 [2] | MIC, MRSA 24 268 [2] | MIC, MRSA 24 272 [2] | MIC, MRSA 24 328 [2] | MIC, MRSA 24 408 [2] | MRSA isolates susceptible out of those tested ([2]; 6 isolates tested, susceptible = MIC up to 40 µM)
1 | Cc1c(C)c(C)[c-](C)c1C.F[P-](F)(F)(F)(F)F.O=C(OCC1OC(n2cc(-c3ccc4ccccc4n3)nn2)C(OC(=O)c2ccccc2)C(OC(=O)c2ccccc2)C1OC(=O)c1ccccc1)c1ccccc1.[Cl][Ir+2] (mixture of isomers) [Ir-7] | submicromolar or low micromolar | >90 | 891 | no activity | 40< µM | 40< µM | 40< µM | 40< µM | 40< µM | 40< µM | –
2 | Cc1ccc(C(C)C)cc1.F[P-](F)(F)(F)(F)F.O=C(OCC1OC(n2cc(-c3ccc4ccccc4n3)nn2)C(OC(=O)c2ccccc2)C(OC(=O)c2ccccc2)C1OC(=O)c1ccccc1)c1ccccc1.[Cl][Os+] (mixture of isomers) [Os-7] | submicromolar or low micromolar | >90 | 578 | 5 µM | 40< µM | 40< µM | 40< µM | 5 µM | 40< µM | 40< µM | 1 out of the 6
3 | Cc1ccc(C(C)C)cc1.F[P-](F)(F)(F)(F)F.O=C(OCC1OC(n2cc(-c3ccc4ccccc4n3)nn2)C(OC(=O)c2ccccc2)C(OC(=O)c2ccccc2)C1OC(=O)c1ccccc1)c1ccccc1.[Cl][Ru+] (mixture of isomers) [Ru-7] | submicromolar or low micromolar | >90 | 847 | 5 to 40 µM | 10 µM | 40 µM | 20 µM | 5 µM | 10 µM | 10 µM | –
